Results published in US20200352912A1, “ANTIMICROBIAL COMPOSITIONS AND METHODS OF USING THE SAME” (The Board Of Supervisors Of Louisiana State University And …, priority 2018, published 2020).

Tests used:
E. coli = assay: spectrum of activity, bacterial growth; format: cell-based, Escherichia coli; details: 50 μg/ml, 6 h
Procedure: Bacterial growth was monitored for 6 h in medium alone or supplemented with 50 μg/ml of L-161, 982. Data shown is representative of three independent experiments.
Strains and growth conditions. The methicillin-resistant S. aureus strain NRS383 used in all experiments was obtained from the Network on Antimicrobial Resistance in S. aureus (NARSA) data bank. NRS383 is positive for the toxic shock syndrome toxin (tst) and 6-toxin genes. SJ-MRSA 6 and SJ-SA5 are methicillin-resistant (MRSA) and methicillin-sensitive (MSSA) clinical S. aureus strains respectively isolated from a patient's catheter. Other bacterial species used in this study include Escherichia coli (ATCC 25922, clinical isolate), S. epidermidis (ATCC 12228), Klebsiella pneumonia (ATCC 43816), Enterococcus faecalis (ATCC 51299, clinical isolate), and Streptococcus mutans (UA159, 12). S. mutans strain was maintained in brain heart infusion (BHI) broth while the other bacterial species were maintained in Luria-Bertani broth. Frozen stocks were obtained at −80° C. and streaked onto agar plates at 37° C. prior to use. A single colony was transferred to 10 ml of culture broth and shaken at 37° C. overnight. On the following day, the overnight culture was diluted 1:100 in fresh growth medium and shaken at 37° C. for 3 h to obtain cells in mid-log growth phase. S. mutans cultures were grown without agitation in the presence of 5% CO2. […]

S. aureus = assay: colony phenotype on agar plates; format: cell-based, Staphylococcus aureus
Source text: L-161, 982 inhibits activities associated with the electron transport chain including ATP production. In addition to the sulfonamide group, the chemical structure of L 161, 982 contains a urea group connected to two aryl groups (diarylurea) (FIG. 11). Urea derivatives are commonly used as herbicides, interfering with electron transport (17). […] SCVs typically lack a functional electron transport chain and cannot produce virulence factors such as hemolysins or the antioxidant pigment staphyloxanthin [reviewed in (19)]. […] These defects are all indicative of interruption of electron transport as carotenoid formation as well as toxin production is dependent on an active electron transport (18, 20, 21). During aerobic respiration, the force required for driving ATP synthesis requires a transmembrane electrical potential (membrane potential), which is generated by the electron transport chain.

[1] = system: S. aureus pre-formed mono-species biofilm; assay: pre-formed mature biofilm (XTT, CFU); format: cell-based, Staphylococcus aureus
Procedure: The effect of L-161, 982 on pre-formed mature biofilms was tested. Mono- and dual-species C. albicans and/or S. aureus biofilms were grown on 96-well plates for 24 h before being treated with the indicated concentration of L-161, 982 for a further 24 h. After treatment, metabolic activity of biofilms was quantified by the XTT assay (A) and then biofilms were disrupted to determine live colony forming units (CFU) (B). The results are cumulative of three independent experiments with duplicate samples. Statistics were performed using One-way ANOVA with the Tukey post-hoc test for the XTT assay. The Mann-Whitney U test was used to analyze CFU data. Significance is indicated as follows: ns—not significant, *P<0.05; *** P<0.001. Error bars represent standard deviation.
Following growth as described above, microbes were washed in phosphate-buffered saline (PBS) by centrifugation, counted on a hemocytometer, and adjusted to 2×10^7 CFU/ml in RPMI buffered with MOPS (165 mM). For monomicrobial biofilms, 50 μl of adjusted C. albicans or S. aureus culture was added to each well of a sterile 96-well cell culture polystyrene microtiter plate (1×10^6 CFU per well); to this, 50 μl of sterile RPMI+MOPS was added. For polymicrobial biofilms, 50 μl of each organism was added per well (1×10^6 CFU of each organism per well). Plates were incubated for 24 h at 37° C. to induce biofilm formation. Following confirmation of mature biofilm growth by macro- and microscopic examination, plates were washed once with 200 μl sterile saline and then 200 μl RPMI+MOPS containing L-161, 982 at various concentrations (6.25-200 μg/ml) added to each well. […]
The XTT reduction assay was used to determine the metabolic activity of biofilms following treatment with L-161, 982 (17). Briefly, wells were washed once in PBS, and plates incubated at 37° C. for 2 h with 200 μl XTT working reagent (0.5 mg/ml XTT and 1 μM Menadione) and the resulting absorbance measured at 490 nm on a microplate spectrophotometer. […]

S. aureus strain 43300 = assay: hemolysis assay; format: cell-based, Staphylococcus aureus
Procedure: (A) Macroscopic analysis of S. aureus hemolytic activity. S. aureus was spotted on Mueller-Hinton agar containing sheep blood and/or various concentrations of L-161, 982, and incubated at 37 C for 24 h (0, 25 50, 100) or 72 h (200). (B) Width of the zone of RBC clearance was measured at 4 points around each S. aureus area of growth in 2 independent replicates. * p<0.05 control vs. drug-treated.
Strains and growth conditions. The methicillin-resistant S. aureus strain NRS383 was obtained from the Network on Antimicrobial Resistance in S. aureus (NARSA) data bank. As NRS383 has little or no hemolytic activity or pigmentation, S. aureus strain 43300 (ATCC) was used for the hemolysis and staphyloxanthin assays. Frozen stocks were obtained at −80° C. and streaked onto trypticase soy agar (TSA) plates at 37° C. prior to use. A single colony was transferred to 10 ml of trypticase soy broth (TSB) and shaken at 37° C. overnight. […]
Hemolysis Assay. Hemolytic activity was measured using Mueller-Hinton agar plates containing 5% defribinated sheep blood (Thermo Fisher)+/−L-161, 982 at a final concentration of 50 μg/ml. […] Plates were placed on a light box and digitally photographed and images were analyzed using Photoshop CS3. […] The width of each zone was measured at 0, 90, 180, 270° around growth spots (2-3 spots/group) using the ruler tool. […]

SMILES: CCCCc1nn(-c2ccccc2C(F)(F)F)c(=O)n1Cc1ccc(-c2ccccc2S(=O)(=O)NC(=O)c2sccc2C)cc1 [L-161, 982, N-[[4′-[[3-Butyl-1,5-dihydro-5-oxo-1-[2-(trifluoromethyl)phenyl]-4H-1,2,4-triazol-4-yl]methyl][1,1′-biphenyl]-2-yl]sulfonyl]-3-methyl-2-thiophenecarboxamide]
- growth inhibitory activity (E. coli): No inhibitory effects
- colony phenotype (S. aureus): grew as small colonies
- concentration required to weaken pre-formed mature biofilms [1]: 100 µg/mL
- CFUs recovered from pre-formed biofilm ([1]; 100 and 200 μg/ml): no CFUs were recovered
- metabolic activity of pre-formed biofilm ([1]; all concentrations tested, 24 h treatment): no significant inhibitory effects
- hemolytic activity, zones of clearance on blood agar (S. aureus strain 43300): significantly reduced zones of clearance
